Earlier results, collected in patent US20250144159A1, “COMPOSITION COMPRISING A MIXTURE OF DHA AND/OR EPA AND A PHOSPHOLIPID OF PLANT ORIGIN” (POLARIS, priority 2022, published 2025).

Details: oral intake; compared with DHA in triglyceride (TG) form

| Compound | cerebral capture of DHA |
| --- | --- |
| CCC=CCC=CCC=CCC=CCC=CCC=CCCC(=O)OC(COC(C)=O)COP(=O)([O-])OCC[N+](C)(C)C (centres unmarked) [AceDoPC] | improves |
| CC/C=C\C/C=C\C/C=C\C/C=C\C/C=C\C/C=C\CCC(=O)OC(CO)COP(=O)([O-])OCC[N+](C)(C)C (centres unmarked) [lysoPC-DHA] | improves |
